Assay results from PubChem BioAssay (NCI).
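Method: 48-hour compound exposure of cells in 96-well plates, five concentrations, linear interpolation of endpoints. TGI is the concentration that stops growth completely.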

Tests used:
Assay in all cases: DTP human tumour cell line panel, 48 h
SF-539 CNS = system: SF-539 CNS
HL-60(TB) leukemia = system: HL-60(TB) leukemia
CCRF-CEM leukemia = system: CCRF-CEM leukemia
UO-31 renal = system: UO-31 renal
SN12C renal = system: SN12C renal
NCI-H23 lung = system: NCI-H23 lung
SK-MEL-5 melanoma = system: SK-MEL-5 melanoma
OVCAR-5 ovarian = system: OVCAR-5 ovarian
T-47D breast = system: T-47D breast
EKVX NSCLC = system: EKVX NSCLC
KM12 colon = system: KM12 colon
UACC-62 melanoma = system: UACC-62 melanoma
RXF 393 renal = system: RXF 393 renal
MDA-MB-231 breast = system: MDA-MB-231 breast
HCT-15 colon = system: HCT-15 colon
RPMI-8226 leukemia = system: RPMI-8226 leukemia
OVCAR-8 ovarian = system: OVCAR-8 ovarian
SK-OV-3 ovarian = system: SK-OV-3 ovarian
NCI/ADR-RES ovarian = system: NCI/ADR-RES ovarian
786-0 renal = system: 786-0 renal
SNB-19 CNS = system: SNB-19 CNS
OVCAR-3 ovarian = system: OVCAR-3 ovarian
SK-MEL-2 melanoma = system: SK-MEL-2 melanoma
HOP-92 NSCLC = system: HOP-92 NSCLC
NCI-H522 lung = system: NCI-H522 lung
MOLT-4 leukemia = system: MOLT-4 leukemia
SF-268 CNS = system: SF-268 CNS
SR leukemia = system: SR leukemia
MDA-MB-435 = system: MDA-MB-435
NCI-H226 lung = system: NCI-H226 lung
TK-10 renal = system: TK-10 renal
A498 renal = system: A498 renal
MALME-3M melanoma = system: MALME-3M melanoma
ACHN renal = system: ACHN renal
UACC-257 melanoma = system: UACC-257 melanoma
PC-3 prostate = system: PC-3 prostate
SF-295 CNS = system: SF-295 CNS
OVCAR-4 ovarian = system: OVCAR-4 ovarian
HT29 colon = system: HT29 colon
MDA-N = system: MDA-N
SW-620 colon = system: SW-620 colon
DU-145 prostate = system: DU-145 prostate
NCI-H460 lung = system: NCI-H460 lung
K-562 leukemia = system: K-562 leukemia
HCC-2998 colon = system: HCC-2998 colon
MCF7 breast = system: MCF7 breast
LOX IMVI melanoma = system: LOX IMVI melanoma
HOP-62 NSCLC = system: HOP-62 NSCLC
HCT-116 colon = system: HCT-116 colon
U251 CNS = system: U251 CNS
M14 melanoma = system: M14 melanoma
CAKI-1 renal = system: CAKI-1 renal
SNB-75 CNS = system: SNB-75 CNS
BT-549 breast = system: BT-549 breast
HS 578T breast = system: HS 578T breast
SK-MEL-28 melanoma = system: SK-MEL-28 melanoma
COLO 205 colon = system: COLO 205 colon
A549 NSCLC = system: A549 NSCLC
IGROV1 ovarian = system: IGROV1 ovarian
DMS 273 small cell lung = system: DMS 273 small cell lung
KM20L2 colon = system: KM20L2 colon
LXFL 529 NSCLC = system: LXFL 529 NSCLC
DLD-1 colon = system: DLD-1 colon
SNB-78 CNS = system: SNB-78 CNS
M19-MEL melanoma = system: M19-MEL melanoma
DMS 114 small cell lung = system: DMS 114 small cell lung

In the case of `Cc1c(Cl)cc(C(C)(C)C)c(O)c1Cc1c(C)c(Cl)cc(C(C)(C)C)c1O`, the TGI (SF-539 CNS) is reported as 4.24 µM, the TGI (HL-60(TB) leukemia) is reported as 3.45 µM and the TGI (CCRF-CEM leukemia) is reported as 1.54 µM. For the same compound, the TGI (UO-31 renal) was 4.46 µM, the TGI (SN12C renal) was 9.02 µM and the TGI (NCI-H23 lung) was 5.13 µM. The TGI (SK-MEL-5 melanoma) was 2.29 µM, the TGI (OVCAR-5 ovarian) was 14 µM and the TGI (T-47D breast) was 13.1 µM. The TGI (EKVX NSCLC) was 6.41 µM, the TGI (KM12 colon) was 5.76 µM and the TGI (UACC-62 melanoma) was 7 µM. The TGI (RXF 393 renal) was 2.44 µM, the TGI (MDA-MB-231 breast) was 3.49 µM and the TGI (HCT-15 colon) was 13.6 µM. It also gave a TGI (RPMI-8226 leukemia) of 0.707 µM, a TGI (OVCAR-8 ovarian) of 5.51 µM and a TGI (SK-OV-3 ovarian) of 10 µM. For the same compound, the TGI (NCI/ADR-RES ovarian) was 9.24 µM, the TGI (786-0 renal) was 4.57 µM and the TGI (SNB-19 CNS) was 12.5 µM. The TGI (OVCAR-3 ovarian) was 2.22 µM, the TGI (SK-MEL-2 melanoma) was 3.9 µM and the TGI (HOP-92 NSCLC) was 1.18 µM. For the same compound, the TGI (NCI-H522 lung) was 1.18 µM, the TGI (MOLT-4 leukemia) was 3.34 µM and the TGI (SF-268 CNS) was 6.89 µM. It also gave a TGI (SR leukemia) of 5.58 µM, a TGI (MDA-MB-435) of 5.62 µM and a TGI (NCI-H226 lung) of 6.03 µM. It also gave a TGI (TK-10 renal) of 10 µM, a TGI (A498 renal) of 3.84 µM and a TGI (MALME-3M melanoma) of 1.94 µM. For the same compound, the TGI (ACHN renal) was 7.64 µM, the TGI (UACC-257 melanoma) was 6.29 µM and the TGI (PC-3 prostate) was 9.93 µM. The TGI (SF-295 CNS) was 7.54 µM, the TGI (OVCAR-4 ovarian) was 10.3 µM and the TGI (HT29 colon) was 6.36 µM. For the same compound, the TGI (MDA-N) was 8.71 µM, the TGI (SW-620 colon) was 6.45 µM and the TGI (DU-145 prostate) was 11.8 µM. For the same compound, the TGI (NCI-H460 lung) was 5.03 µM, the TGI (K-562 leukemia) was 5.1 µM and the TGI (HCC-2998 colon) was 3.33 µM. It also gave a TGI (MCF7 breast) of 7.28 µM, a TGI (LOX IMVI melanoma) of 3.19 µM and a TGI (HOP-62 NSCLC) of 9.87 µM. For the same compound, the TGI (HCT-116 colon) was 3.47 µM, the TGI (U251 CNS) was 7.97 µM and the TGI (M14 melanoma) was 7.85 µM. It also gave a TGI (CAKI-1 renal) of 7.51 µM, a TGI (SNB-75 CNS) of 5.78 µM and a TGI (BT-549 breast) of 9.79 µM. For the same compound, the TGI (HS 578T breast) was 3.61 µM, the TGI (SK-MEL-28 melanoma) was 12.3 µM and the TGI (COLO 205 colon) was 2.48 µM. The TGI (A549 NSCLC) was 5.88 µM and the TGI (IGROV1 ovarian) was 5.53 µM.
Work on `CCNC(=O)O/N=C1/C=C2CC[C@@H]3C(CC[C@@]4(C)C3CC[C@@H]4OC(=O)NCC)[C@@]2(C)CC1` (stereo partly drawn) yielded a TGI (SF-539 CNS) greater than 100 µM, a TGI (UO-31 renal) of 3.46 µM and a TGI (SN12C renal) of 14.6 µM. For the same compound, the TGI (NCI-H23 lung) was 10.8 µM, the TGI (SK-MEL-5 melanoma) was greater than 100 µM and the TGI (OVCAR-5 ovarian) was 20 µM. It also gave a TGI (DMS 273 small cell lung) of 5.5 µM, a TGI (EKVX NSCLC) of 16.2 µM and a TGI (KM12 colon) of 9.58 µM. It also gave a TGI (UACC-62 melanoma) of 7.92 µM, a TGI (RXF 393 renal) of 5.3 µM and a TGI (HCT-15 colon) of 11.2 µM. The TGI (RPMI-8226 leukemia) was 7.02 µM, the TGI (OVCAR-8 ovarian) was 16.3 µM and the TGI (KM20L2 colon) was 5.15 µM. For the same compound, the TGI (SK-OV-3 ovarian) was 7.8 µM, the TGI (786-0 renal) was 10.7 µM and the TGI (SNB-19 CNS) was 8.21 µM. The TGI (SK-MEL-2 melanoma) was 5.1 µM, the TGI (LXFL 529 NSCLC) was 3.4 µM and the TGI (HOP-92 NSCLC) was 16.7 µM. It also gave a TGI (NCI-H522 lung) of 4.77 µM, a TGI (MOLT-4 leukemia) of 5.44 µM and a TGI (DLD-1 colon) greater than 100 µM. The TGI (SNB-78 CNS) was 9.3 µM, the TGI (TK-10 renal) was 8.8 µM and the TGI (M19-MEL melanoma) was 10.3 µM. The TGI (A498 renal) was greater than 100 µM, the TGI (ACHN renal) was 11.6 µM and the TGI (UACC-257 melanoma) was 11.1 µM. The TGI (SF-295 CNS) was 7.03 µM, the TGI (OVCAR-4 ovarian) was 6.39 µM and the TGI (HT29 colon) was 10.3 µM. For the same compound, the TGI (SW-620 colon) was 11.4 µM, the TGI (NCI-H460 lung) was 12.5 µM and the TGI (K-562 leukemia) was 12.7 µM. It also gave a TGI (HCC-2998 colon) of 15.2 µM, a TGI (LOX IMVI melanoma) of 11.9 µM and a TGI (HOP-62 NSCLC) greater than 100 µM. It also gave a TGI (HCT-116 colon) of 12.2 µM, a TGI (U251 CNS) of 5.28 µM and a TGI (M14 melanoma) of 8.22 µM. For the same compound, the TGI (CAKI-1 renal) was 16.9 µM, the TGI (SNB-75 CNS) was 5.94 µM and the TGI (SK-MEL-28 melanoma) was 14.6 µM. For the same compound, the TGI (COLO 205 colon) was 7.87 µM, the TGI (A549 NSCLC) was 14.2 µM and the TGI (DMS 114 small cell lung) was 3.29 µM. It also gave a TGI (IGROV1 ovarian) greater than 100 µM.
